Measured values reported in patent US20250332265A1, “PSMA TARGETED CONJUGATE COMPOUNDS AND USES THEREOF” (priority 2021, published 2025).
Values joined by “and” are separate entries in the source; they are usually repeats but may differ in a detail not shown here. Identical values can stand only once. Numbered stars: 1 amine (or outer) side, 2 acyl side, 3 side chain; on linkers, the order of the positions; unused ones are H or OH. Bridge positions count the residues as written; N and C are the ends. Square brackets hold non-standard residues; d marks the D form. Peptide text beside a SMILES is read from it. I, II: the chains in the order shown. * marks the point of attachment. ξ: configuration not given here. X4 = CN1/C(=C/C=C/C=C/C2=[N+](CCCCCC(=O)*)c3ccc4ccccc4c3C2(C)C)C(C)(C)c2c1ccc1ccccc21; Hexanoyl(6-succinimido-3yl) = O=C1CC([*:1])C(=O)N1CCCCCC(=O)[*:2]; X5 = CC[C@H](C)[C@@H]([C@H](CC(=O)[*:2])OC)N(C)[*:1]; Dolaproine = CO[C@@H]([C@@H]1CCCN1)[C@@H](C)C(=O)O; Dil = CC[C@H](C)[C@H](NC)[C@@H](CC(=O)O)OC; γGlu = O=C(O)[C@H](CCC(=O)[*:2])N[*:1]; PABC = O=C(OCc1ccc(N[*:1])cc1)[*:2]; ξγGlu = O=C(O)C(CCC(=O)[*:2])N[*:1]; X1 = C[C@@H](N*)[C@@H](O)c1ccccc1; Trx = NC[C@H]1CC[C@H](C(=O)O)CC1; X3 = O=C(C1CCC(CN[*:1])CC1)[*:2]; Cit = NC(=O)NCCC[C@H](N)C(=O)O; NMeV = CN[C@H](C(=O)O)C(C)C; ξE = NC(CCC(=O)O)C(=O)O; CO = O=C([*:1])[*:2]; ξK = NCCCCC(N)C(=O)O; Ahx = NCCCCCC(=O)O; ξC = NC(CS)C(=O)O

Legend:
PC3pip cells [1] = assay: In vitro cytotoxicity by MTT assay, PC3pip; format: cell-based, human; details: 5 nM, 24 h
Method: (§1) In vitro cytotoxicity was measured by MTT assay. Cells (10000 cells/well) were seeded in 96-well plates and incubated for 24 h before adding 5 nM free MMAE, PSMA-MMAE, or PSMA-AuNCs-MMAE. An equivalent amount of PSMA-AuNCs without MMAE was added as a control, and another group of cells pretreated with 50 μM E64 inhibitor for 6 h was also incubated with PSMA-AuNCs-MMAE. After incubation for 1, 4, and 24 h, cells were rinsed with PBS and incubated with 1 mg/mL MTT solution in culture media for 3.5 h. After that media were removed, and 100 μL of DMSO was added. The absorbance was measured 15 min later by a plate reader (Tecan Infinite M200) with absorbance at 570 nm and reference at 620 nm.

[2] = system: PSMA-positive PC3pip cells; assay: In vitro cytotoxicity assay (CCK-8), PC3pip; format: cell-based, human
Method: Cells (1,000/well) were seeded in 96-well culture plates the day before treatment. Cells were incubated with various concentrations of drugs for 72 hours and cell viability evaluated by CCK-8 (Dojindo). The concentration required to reach 50% of cell proliferation was determined (IC50) by GraphPad Prism 3.0.

[3] = Maximum tolerated dose (MTD); format: in vivo, mice; details: single dose i.v., tumor-free athymic nude mice
From the text: Mice were monitored daily for 14 days.

[4] = system: α-tubulin in PC3pip and PC3flu cells; assay: Immunofluorescence analysis of alpha-tubulin; format: cell-based, human; details: 5 nM, 24 hours
Method: Cells on coverslips at about 70% confluency were incubated with 5 nM of MMAE, PSMA-1-VcMMAE-Cy5.5 or PSMA-1-McMMAE-Cy5.5 for 24 hours. Cells were washed and fixed with 4% paraformaldehyde for 10 minutes, permeabilized with 0.1% Triton™ X-100 for 10 minutes, and blocked with 1% BSA for 1 hour at room temperature. Alpha-tubulin (B5-1-2) Alexa Fluor 488 Mouse Monoclonal Antibody (Invitrogen) was then added at 2 μg/mL in 0.1% BSA and incubated for 3 hours at room temperature. Cells were counterstained with DAPI, mounted with Fluor-Mount aqueous mounting solution, and observed under Leica DM4000B fluorescence microscopy at 40×.

[5] = system: heterotopic PC3pip tumors; assay: Heterotopic survival study; format: in vivo, mice; details: for antitumor activity (tumor growth), words: 160 nmol/kg i.v. every four days
From the text: Male athymic nude mice were implanted subcutaneously with 1×10^6 of PC3pip cells under the right dorsum of the mice. When tumor size reached approximately 100 mm^3 (tumor volume=Length×width^2/2), mice received drugs through tail vein injection. […] Animals were weighed and tumor size measured every other day for 90 days. Cures were defined as no tumor present at end of the 90-day study. When tumors became too large or animals were moribund they were euthanized. Five mice were used in each group.

PC3flu cells = assay: In vitro cytotoxicity by MTT assay, PC3flu; format: cell-based, human; details: 5 nM, 24 h
Method: as §1

[6] = Stability of conjugates incubated with PBS, Example 1; format: physicochemical; details: without enzyme
Method: To investigate if PSMA-targeted drug conjugates were cleavable by cathepsin B, the two conjugates were incubated with or without the enzyme and chromatographed by HPLC. When the conjugates were incubated with PBS, both PSMA-1-VcMMAE-Cy5.5 and PSMA-1-McMMAE-Cy5.5 were stable (FIG. 1D).

heterotopic C4-2 tumors = assay: Antitumor activity in heterotopic C4-2 tumors; format: in vivo, mice
From the text: To show versatility of the antitumor activity of PSMA-1-VcMMAE-Cy5.5, we tested it in mice bearing heterotopic C4-2 tumors, which are androgen-independent prostate cancer cells endogenously expressing PSMA.

PC3pip and PC3flu tumors = assay: In vivo NIR imaging studies, Example 1; design: species or system mice; details: 40 nmol/kg i.v., fluorescence imaging
Method: Under guidelines of the animal care and use committee at Case Western Reserve University (IACUC #150033) 6 to 8-week old male Balb/cathymic nude mice were implanted subcutaneously with 1×10^6 of PC3flu and PC3pip on the left and right dorsum respectively. Mice received 40 nmol/kg of PSMA-1-VcMMAE-Cy5.5 or PSMA-1-McMMAE-Cy5.5 in PBS via tail vein injection when tumors reached 10 mm in diameter. Fluorescence imaging was performed using the Maestro In Vivo Imaging system (Perkin-Elmer). Multispectral images were unmixed into their component spectra (PSMA probes, autofluorescence, and background) to quantitate the average fluorescence intensity associated with the tumors using regions of interest (ROIs) around the tumors.

[7] = system: PSMA receptor expressed on the PC3pip cells; assay: In vitro cellular uptake studies, Example 1; format: cell-based, human; details: 50 nM, 4 hours
Method: PC3pip and PC3flu cells were seeded in p-Slide 8-Well Chamber Slide (ibidi GmbH) at 2,000 cells/well. When cells grew to 70% confluency, PSMA-1-VcMMAE-Cy5.5 or PSMA-1-McMMAE-Cy5.5 conjugations were added at 50 nM and incubated at 37° C. for 4 hours. Cells were washed with PBS and stained with DAPI and LysoOrange (Abcam) for 30 minutes at 37° and 5% CO2, after which they were washed again with PBS and filled with fresh medium. Selectivity was determined by including 20-fold excess of the PSMA-1 ligand. The uptake and localization of the drug conjugates were visualized under a Leica HyVolution SP8 confocal microscope at 40×.

orthotopic PC3pip tumors = assay: Orthotopic survival study; format: in vivo, mice; details: every four days, 5 doses
Method: Surgical orthotopic tumor implantation was performed as previously reported. Tumor growth/size was monitored using Siemens Acuson S2000 ultrasound scanner. When the tumors were at the appropriate size (5 mm as measured by ultrasound, approximately 2 weeks) animals were given PSMA-1-VcMMAE, PSMA-1-VcMMAE-Cy5.5, or PBS every four days with a total of 5 doses. Tumors were monitored every other day by ultrasound. Each group had five mice.

PC3pip tumor = assay: In vivo chemoradiotherapy; design: species or system mice
Method: Male athymic nude mice were subcutaneously implanted with the PC3pip tumor, and when the tumor size reached about 100 mm^3 (tumor volume=length×width^2/2), the mice were divided into ten groups randomly. Each group was intravenously injected with PBS, PSMA-AuNCs, PSMA-AuNCs-MMAE, PSMA-MMAE, or a mixture of PSMA-AuNCs and PSMA-MMAE at MMAE dose of 400 nmol/kg and an equivalent dose of Au. At 4 h postinjection, five of the groups were irradiated with X-rays (6 Gy, Cs-137 with energy of 0.6616 MeV) focusing on the tumor region, and the other five groups received the same injections but no radiation and were used as controls. Each group contained five mice. All the treatments were given only once, and then the mice were monitored for tumor size and body weight every other day for one month. The coefficient of drug interaction (CDI) is calculated as follows: CDI=C/(A×B),^44 where C is the tumor volume ratio of PSMA-AuNCs-MMAE+RT group to control group, A is the tumor volume ratio of PSMA-AuNCs+RT group to control group, and B is the tumor volume ratio of PSMA-MMAE+RT group to control group; PBS+RT group is the control. […] When the tumors became too large or an animal was moribund, they were euthanized. At the end of monitoring, all mice were euthanized and tumors were isolated and weighed.

PC3pip cells [8] = assay: In vitro radiotherapy (colony survival); format: cell-based, human; details: 1 nM MMAE and/or 60 μg Au/mL, 6 h, X-ray 0-6 Gy
Method: Both PC3pip and PC3flu cells (1×10^5 cells/well) were cultured in 6-well plates for 24 h, and then PSMA-AuNC-MMAE and PSMA-MMAE were added at an equivalent MMAE concentration of 1 nM. Additionally, PSMA-AuNCs without MMAE was added at 60 μg Au/mL. Another group with the addition of a mixture of PSMA-AuNCs and PSMA-AuNC-MMAE at the equivalent dose of Au and MMAE was also evaluated. Mixing was performed so as to keep Au concentrations equivalent. This could not be achieved by adding more PSMA-AuNC-MMAE as this would result in toxic levels of MMAE. Cells without any treatment were used as blank control. Following incubation for 6 h, the media were removed, and cells were rinsed by PBS before exposing to X-ray radiation at doses of 0, 2, 4, and 6 Gy. Next, cells were trypsinized, counted, and reseeded in 6-well plate for colonies to grow. After 2 weeks, all the wells were rinsed with PBS, fixed with 4% paraformaldehyde, and stained by 0.4% crystal violet. The number of colonies from each well was counted to calculate the survive fraction.

[9] = In vitro cytotoxicity by MTT assay, PC3flu; format: cell-based, human; details: 5 nM, 24 h, read-out: cell killing / drop of viability, PC3flu cells
Method: as §1

SMILES	cell killing, PC3pip cells (PC3pip cells [1])	selectivity, differential cytotoxicity between PC3pip and PC3flu cells ([2]; 72 hours incubation)	maximum tolerated dose (MTD) [3] [nmol/kg]	disruption of α-tubulin network [4]	time by which all mice died ([5]; 160 nmol/kg) [days]	antitumor activity (tumor growth), words ([5]; 5 doses)	cell killing / drop of viability, PC3flu cells (PC3flu cells)	stability when incubated with PBS [6]	cure rate (heterotopic C4-2 tumors) [%]	time of peak uptake in PC3pip tumors (PC3pip and PC3flu tumors) [h]	IC50 ([2]; 72 hours incubation, CCK-8)	effect of protease inhibitor E64 on cell killing ([2]; co-incubation with 50 μM E64)	cellular binding and uptake, competition with PSMA-1 ligand [7]	cure at day 90 (orthotopic PC3pip tumors) [%]	cure rate (no tumors at end of 90-day study) ([5]; 160 nmol/kg i.v. every 4 days, 5 doses) [%]	tumor growth when given every 7 days ([5]; dosing every 7 days)	tumor volume increase (PC3pip tumor; 6 Gy radiation, day 30, MMAE 400 nmol/kg) [%]	tumor volume increase (PC3pip tumor; no radiation, end of observation, MMAE 400 nmol/kg) [%]	radiosensitization (colony survival rate) of PC3pip cells (PC3pip cells [8])	cytotoxicity [9] [%]
CC[C@H](C)[C@@H]([C@@H](CC(=O)N1CCC[C@H]1[C@H](OC)[C@@H](C)C(=O)N[C@H](C)[C@@H](O)c1ccccc1)OC)N(C)C(=O)[C@@H](NC(=O)[C@@H](NC)C(C)C)C(C)C [MMAE, monomethyl auristatin E, reference compound] (H-[NMeV]V[Dil][Dolaproine]-X1)	over 70%	no selectivity	700	non-selective tubulin disruption	≤ 36	relatively ineffective at inhibiting tumor growth	over 70%													
CC[C@H](C)[C@@H]([C@H](CC(=O)N1CCC[C@H]1[C@H](OC)[C@@H](C)C(=O)N[C@H](C)[C@@H](O)c1ccccc1)OC)N(C)C(=O)[C@@H](NC(=O)[C@H](C(C)C)N(C)C(=O)OCc1ccc(NC(=O)[C@H](CCCNC(N)=O)NC(=O)[C@@H](NC(=O)CCCCCN2C(=O)CC(SCC(NC(=O)C(CCC(=O)O)NC(=O)C(CCC(=O)O)NC(=O)C(CCC(=O)O)NC(=O)CCCCCNC(=O)C3CCC(CNC(=O)CCC(NC(=O)NC(CCC(=O)O)C(=O)O)C(=O)O)CC3)C(=O)NCCCCCC(=O)NC(CCCCNC(=O)CCCCC[N+]3=C(/C=C/C=C/C=C4/N(C)c5ccc6ccccc6c5C4(C)C)C(C)(C)c4c3ccc3ccccc43)C(N)=O)C2=O)C(C)C)cc1)C(C)C (some centres unmarked) [PSMA-1-VcMMAE-Cy5.5] (I: {ξE-CO-ξγGlu}-[X3][Ahx][ξE][ξE][ξE][ξC][Ahx][ξK](X4)-NH2 / II: V[Cit][PABC][NMeV]V[X5][Dolaproine]-X1; linker I:6-II:N via Hexanoyl(6-succinimido-3yl))				selective disruption of tubulin in PC3pip cells		effectively inhibited tumor growth		stable	40	24	840 pM and 750 pM	reduced the potency	selective and specific for the PSMA receptor	40	60	greatly inhibited tumor growth				
CC[C@H](C)[C@@H]([C@@H](CC(=O)N1CCC[C@H]1[C@H](OC)[C@@H](C)C(=O)N[C@H](C)[C@@H](O)c1ccccc1)OC)N(C)C(=O)[C@@H](NC(=O)[C@H](C(C)C)N(C)C(=O)OCc1ccc(NC(=O)[C@H](CCCNC(N)=O)NC(=O)[C@@H](NC(=O)CCCCCN2C(=O)CC(SC[C@H](NC(=O)[C@H](Cc3ccc(O)cc3)NC(=O)[C@H](CCCCN)NC(=O)[C@H](CCC(=O)O)NC(=O)[C@H](CCC(=O)O)NC(=O)[C@H](CCC(=O)O)NC(=O)CCCCCNC(=O)[C@H]3CC[C@H](CNC(=O)CC[C@H](NC(=O)N[C@@H](CCC(=O)O)C(=O)O)C(=O)O)CC3)C(N)=O)C2=O)C(C)C)cc1)C(C)C (stereo partly drawn) [PSMA-MMAE] (I: {Glu-CO-γGlu-Trx-Ahx}-EEEKYC-NH2 / II: V[Cit][PABC][NMeV]V[Dil][Dolaproine]-X1; linker I:6-II:N via Hexanoyl(6-succinimido-3yl); C-terminus assumed)	58%																55	163	notably lower survival rate	18
